Among the data in paper PMC6318015 (Cancer research, 2018) are DC50 values, retold here.

This experiment has as its target BRD4 (Homo sapiens, UniProt O60885). The experiment in a line: PROTAC-induced BRD4 degradation in HCT116 cells, immunoblot, […] h. The experiment is classed as cell-based.

Molecules are shown by their SMILES.

In turn, `Cc1ncsc1-c1ccc(CNC(=O)[C@@H]2C[C@@H](O)CN2C(=O)[C@@H](NC(=O)COCCCCOCCCOc2ccc(NC(=O)C[C@@H]3N=C(c4ccc(Cl)cc4)c4c(sc(C)c4C)-n4c(C)nnc43)cc2)C(C)(C)C)cc1` [A743] came in with a 50% degradation concentration (DC50) of 0.0231 µM.

By DC50 is commonly meant the concentration at which degradation of the target reaches its halfway point.
